This note sets out measurements from patent US4957909A, “Benzobicycloalkane derivatives as anticonvulsant neuroprotective agents” (American Home Products Corporation, priority 1990, dated 1990).

Experiment [1] concerns male Swiss-albino mice (CD-1 strain). Nature of the experiment: NMDA antagonism in mice: NMDA-induced generalized myoclonus and death, ED50 for survival. Type of experiment: in vivo. As to conditions: mice pretreated 30 min before NMDA 195 mg/kg i.p. Here is the method: The mice were pretreated with the representative test compounds followed thirty minutes later with NMDA (195 mg/kg, i.p., the ED90 dose for generalized myoclonus). The mice were then observed for 30 minutes, noting the latency of onset of generalized myoclonus (uncontrollable hind leg scratching or limbs and/or torso muscle jerking with loss of righting reflex) and death. From the latter, the ED50 for survival is determined.

Experiment [2] has as its system NMDA-induced neuronal release of norepinephrine. The experiment in a line: Inhibition of NMDA-induced [3H]norepinephrine release from rat hippocampal slices. Type of experiment: cell-based. The conditions noted are these: 100 μM concentration, NMDA 150 μM. Here is the method:
In addition, the compounds involved herein were established as inhibitors of NMDA-induced neuronal release of norepinephrine by showing that (-)-13β-methylamino-3-methoxy-5α-methyl-5,6,7,8,9,10,11,12-octahydro-5,11-meth-anobenzocyclodecene inhibits 89 percent of the NMDA-inducednorepinephrine release at 100 μM concentration in the following standard test procedure:
Rat hippocampal slices (0.5 mm thick) were incubated (37° C.) for 30 minutes in oxygenated (bubbled 95% O2 /5% CO2), physiological medium (containing 117 mM NaCl, 4.7 mM KCl, 11.5 mM glucose, 1.2 mM MgCl2, 10 μM pargyline, 1 mM ascorbate, 1.2 mM NaH2 PO4 and 25 mM NaHCO3, adjusted to pH 7.4). The slices were then washed with 0.9% NaCl and incubated in physiological medium with 0.1 μM [^3 H] norepinephrine (30 minutes, 37° C.). The slices were again washed with 0.9% NaCl and then placed in tubes (borosilicate glass, 12×75 mm) containing 0.5 ml Mg^+2 -free physiological medium with 50 μM corticosterone and 10 μM desipramine added to minimize norepinephrine reuptake. Samples were analyzed for [^3 H] content at 5 minute intervals. After 75 minutes, the inhibitor drug was added. Fifteen minutes later NMDA was added to a concentration of 150 μM. The amount of [^3 H] released was measured by liquid scintillation spectroscopy. […]

Each structure is given as a SMILES string.

On to `CNC1C2CCCCCC1(C)c1cc(OC)ccc1C2` (single isomer, unassigned; (-)) [(-)-13β-methylamino-3-methoxy-5α-methyl-5,6,7,8,9,10,11,12-octahydro-5,11-methanobenzocyclodecene], for which the ED50 for survival is on record as 56 mg/kg in experiment [1] (i.p.) and 97 mg/kg in experiment [1] (p.o.). For the same molecule, in experiment [2], the “inhibition of NMDA-induced norepinephrine release” value was 89%.
